Measured values taken from patent US6362218B1, “Brefeldin A derivatives” (Purdue Research Foundation, priority 1997, dated 2002).
In brackets after ≈: the same amount, converted by molar mass. Several values for one entry are separate records, joined by “and”; a condition that tells them apart may be missing. Equal entries are not always repeated.

Key:
HOP-62 = test: NCI human cancer cell line screen, antiproliferative activity, Lung HOP-62; type: cell-based; conditions: concentration corresponding to 50% growth inhibition, read-out: cytotoxicity GI50, Lung HOP-62
Method: (§1) The new synthesized brefeldin A prodrug candidates and analogs were examined for antiproliferative activity against human cancer cell lines in the National Cancer Institute screen, in which the activity of each compound was evaluated with approximately 55 different cancer cell lines of diverse tumor origins.

HCT-116 = test: NCI human cancer cell line screen, antiproliferative activity, Colon HCT-116; type: cell-based; conditions: concentration corresponding to 50% growth inhibition, read-out: cytotoxicity GI50, Colon HCT-116
Method: as §1

SN12C = test: NCI human cancer cell line screen, antiproliferative activity, Renal SN12C; type: cell-based; conditions: concentration corresponding to 50% growth inhibition, read-out: cytotoxicity GI50, Renal SN12C
Method: as §1

[1] = Solubility of saturated solutions in distilled water, gravimetric; conditions: distilled water at room temperature, saturated solution
DU-145 = test: NCI human cancer cell line screen, antiproliferative activity, Prostate DU-145; type: cell-based; conditions: concentration corresponding to 50% growth inhibition, read-out: cytotoxicity GI50, Prostate DU-145
Method: as §1

[2] = tested on: all human cancer cell lines successfully tested; test: NCI screen, mean graph midpoint over approximately 55 cancer cell lines; type: cell-based; conditions: average GI50 for all cell lines tested (approximately 55), test range 10^-4 to 10^-8 molar
Method: as §1

OVCAR-3 = test: NCI human cancer cell line screen, antiproliferative activity, Ovarian OVCAR-3; type: cell-based; conditions: concentration corresponding to 50% growth inhibition, read-out: cytotoxicity GI50, Ovarian OVCAR-3
Method: as §1

SF-539 = test: NCI human cancer cell line screen, antiproliferative activity, CNS SF-539; type: cell-based; conditions: concentration corresponding to 50% growth inhibition, read-out: cytotoxicity GI50, CNS SF-539
Method: as §1

UACC-62 = test: NCI human cancer cell line screen, antiproliferative activity, Melanoma UACC-62; type: cell-based; conditions: concentration corresponding to 50% growth inhibition, read-out: cytotoxicity GI50, Melanoma UACC-62
Method: as §1

MDA-MB-435 = test: NCI human cancer cell line screen, antiproliferative activity, Breast MDA-MB-435; type: cell-based; conditions: concentration corresponding to 50% growth inhibition, read-out: cytotoxicity GI50, Breast MDA-MB-435
Method: as §1

[3] = buffer, pH 7.4

C[C@H]1CCC/C=C/[C@@H]2C[C@H](O)C[C@H]2[C@H](O)/C=C/C(=O)O1 [Compound 1, Brefeldin A]
GI50 (HOP-62): 0.07 µM
GI50 (HCT-116): 0.029 µM
GI50 (SN12C): 0.09 µM
solubility [1]: 2.8 mg/mL (≈ 9.99 mM)
GI50 (DU-145): 0.13 µM
MGM (mean graph midpoint for growth inhibition) [2]: 0.041 µM and 0.040 µM
MGM (mean graph midpoint for growth inhibition) ([2]; listed as brefeldin A): 0.040 µM
GI50 (OVCAR-3): 0.032 µM
GI50 (SF-539): 0.04 µM
GI50 (UACC-62): 0.022 µM
GI50 (MDA-MB-435): 0.041 µM

CC1CCCC=CC2CC(O)CC2C(O)[C@H](Sc2ccc(O)cc2)CC(=O)O1 (stereo partly drawn) [Compound 3, 2,3-Dihydro-(3R)-(4′-hydroxyphenylthio)brefeldin A]
GI50 (HOP-62): 3.2 µM
GI50 (HCT-116): 2.5 µM
GI50 (SN12C): 4.4 µM
GI50 (DU-145): 6.3 µM
MGM (mean graph midpoint for growth inhibition) [2]: 3.2 µM
GI50 (OVCAR-3): 2.4 µM
GI50 (SF-539): 5.1 µM
GI50 (UACC-62): 4.8 µM

CC1CCCC=CC2CC(O)CC2C(O)C(SCCN(C)C)CC(=O)O1 [Compound 4, 2,3-Dihydro-(3R)-(2′-N,N-dimethylaminoethylthiol)brefeldin A]
GI50 (HCT-116): 0.75 µM
GI50 (SN12C): 1.4 µM
solubility [1]: 10 mg/mL (≈ 25.9 mM)
GI50 (DU-145): 2.4 µM
MGM (mean graph midpoint for growth inhibition) [2]: 0.68 µM
GI50 (SF-539): 0.39 µM
GI50 (UACC-62): 0.43 µM
GI50 (MDA-MB-435): 0.5 µM

CC1CCCC=CC2CC(O)CC2C(O)C(SCCO)CC(=O)O1 [Compound 5, 2,3-Dihydro-(3R)-(2′-hydroxyethylthio)brefeldin A]
GI50 (HOP-62): 34 µM
GI50 (HCT-116): 19 µM
GI50 (SN12C): 33 µM
solubility [1]: 12 mg/mL (≈ 33.5 mM)
GI50 (DU-145): 30 µM
MGM (mean graph midpoint for growth inhibition) [2]: 20 µM
GI50 (OVCAR-3): 27 µM
GI50 (SF-539): 23 µM
GI50 (UACC-62): 40 µM
GI50 (MDA-MB-435): 34 µM

CC1CCCC=CC2CC(O)CC2C(O)[C@H](CC(=O)O)CC(=O)O1 (stereo partly drawn) [Compound 6, 2,3-Dihydro-(3R)-(carboxymethyl)brefeldin A]
GI50 (HOP-62): 30 µM
GI50 (HCT-116): 23 µM
GI50 (SN12C): 39 µM
solubility [1]: 40 mg/mL (≈ 118 mM)
GI50 (DU-145): 38 µM
MGM (mean graph midpoint for growth inhibition) [2]: 33 µM
GI50 (OVCAR-3): 30 µM
GI50 (SF-539): 34 µM
GI50 (UACC-62): 33 µM
GI50 (MDA-MB-435): 42 µM

COC(=O)CSC1CC(=O)OC(C)CCCC=CC2CC(O)CC2C1O [Compound 7, 2,3-Dihydro-(3R)-(methoxycarbonylmethylthiol)brefeldin A]
GI50 (HOP-62): 28 µM
GI50 (HCT-116): 19 µM
GI50 (SN12C): 32 µM
GI50 (DU-145): 30 µM
MGM (mean graph midpoint for growth inhibition) [2]: 17 µM
GI50 (OVCAR-3): 27 µM
GI50 (SF-539): 24 µM
GI50 (MDA-MB-435): 30 µM

CC1CCCC=CC2CC(O)CC2C(O)[C@H](SCC(O)CO)CC(=O)O1 (stereo partly drawn) [Compound 8, 2,3-Dihydro (3R)-(2′,3′-dihydroxypropylthio) brefeldin A]
GI50 (HOP-62): 33 µM
GI50 (HCT-116): 36 µM
GI50 (SN12C): 34 µM
GI50 (DU-145): 18 µM
MGM (mean graph midpoint for growth inhibition) [2]: 23 µM
GI50 (OVCAR-3): 22 µM
GI50 (SF-539): 32 µM
GI50 (UACC-62): 16 µM
GI50 (MDA-MB-435): 36 µM

CC1CCCC=CC2CC(O)CC2C(O)C(SCCN)CC(=O)O1 [Compound 9, 2,3-Dihydro-(3R)-(2′)-aminoethylthio)brefeldin A]
GI50 (HOP-62): 3.9 µM
GI50 (HCT-116): 3.5 µM
MGM (mean graph midpoint for growth inhibition) [2]: 2.5 µM
GI50 (OVCAR-3): 2.2 µM
GI50 (SF-539): 4.9 µM
GI50 (UACC-62): 2.7 µM

COc1ccc(S[C@@H]2CC(=O)OC(C)CCCC=CC3CC(O)CC3C2O)cc1 (stereo partly drawn) [Compound 10, 2,3-Dihydro-(3R)-(4′-methoxyphenylthio)brefeldin A]
GI50 (HOP-62): 24 µM
GI50 (HCT-116): 33 µM
GI50 (SN12C): 30 µM
GI50 (DU-145): 36 µM
MGM (mean graph midpoint for growth inhibition) [2]: 31 µM
GI50 (OVCAR-3): 22 µM
GI50 (SF-539): 26 µM
GI50 (UACC-62): 29 µM
GI50 (MDA-MB-435): 19 µM

C[C@H]1CCC/C=C/[C@@H]2C[C@H](O)C[C@H]2[C@H](O)[C@@H](SC[C@H](N)C(=O)O)CC(=O)O1 [Compound 11, 2,3-Dihydro-(3R)-(S-L-cysteinyl)brefeldin A]
solubility [1]: 35 mg/mL (≈ 87.2 mM)

COC(=O)CC[S+]([O-])C1CC(=O)OC(C)CCCC=CC2CC(O)CC2C1O [Compound 13, 2,3-Dihydro-(3R)-(2′-methoxycarbonylethylsulfinyl)brefeldin A]
half-life for the conversion of the sulfoxide to brefeldin A [3]: 87.4 h
